Consider ten compounds from patent EP0434038A1, “Fused imidazole derivatives, their production and use” (Takeda Chemical Industries, Ltd., priority 1989, dated 1991).

Molecules are shown by their SMILES. Some results are limits rather than exact numbers.

One test has as its target T1, A-II-receptor (Bos taurus, UniProt P25104).
T1 construct: An A-II-receptor was prepared from the membrane fraction of bovine adrenal cortex
T1 sequence (P25104 1-359): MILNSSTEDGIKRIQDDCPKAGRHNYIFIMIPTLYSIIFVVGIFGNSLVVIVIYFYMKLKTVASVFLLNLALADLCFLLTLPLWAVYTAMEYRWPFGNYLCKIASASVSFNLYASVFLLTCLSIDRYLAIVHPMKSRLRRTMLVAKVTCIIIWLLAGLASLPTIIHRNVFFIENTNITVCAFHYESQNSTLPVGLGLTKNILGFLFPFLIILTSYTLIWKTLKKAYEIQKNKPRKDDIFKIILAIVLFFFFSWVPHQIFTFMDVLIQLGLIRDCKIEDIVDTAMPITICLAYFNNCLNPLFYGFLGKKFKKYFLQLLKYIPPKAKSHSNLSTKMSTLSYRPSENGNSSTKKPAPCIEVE
In words: displacement of 125I-angiotensin II from bovine adrenal cortex membranes. The format is binding, membrane fraction. To be noted: for inhibition at 1 µM: read-out: Radioreceptor Assay (%) / 1X10⁻⁶M; for inhibition at 0.1 µM: read-out: Radioreceptor Assay (%) / 1X10⁻⁷M. As to the method:
Inhibition of binding of angiotensin-II to angiotensin receptor
An experiment of inhibition on the binding of angiotensin-II (A-II) to A-II-receptor was conducted by modifying the method of Douglas et al. [Endocrinology, 102, 685-696 (1978)]. An A-II-receptor was prepared from the membrane fraction of bovine adrenal cortex.
The compound of the present invention (10⁻⁷M or 10⁻⁶M ) and ¹²⁵I-A-II (1.85 kBq/50 µl) were added to the receptor membrane fraction, and the mixture was incubated at room temperature for one hour. The receptor-bound and free ¹²⁵I-A-II were separated through a filter (Whatman GF/B filter), and the radioactivity of ¹²⁵I-A-II bound to the receptor was measured.

The subject of another test is Jcl : SD rats. As to the kind of experiment: inhibition of the pressor response to angiotensin II in rats, oral. To be noted: Rattus norvegicus, p.o. The format is in vivo. An excerpt: Inhibitory effect of the compound of the present invention on pressor action of A-II
Jcl : SD rats (9 week old, male) were used. On the day previous to the experiment, these animals were applied with cannulation into the femoral artery and vein under anesthesia with pentobarbital Na. The animals were fasted but allowed to access freely to drinking water until the experiment was started. Just on the day of conducting the experiment, the artery cannula was connected with a blood-pressure transducer, and the average blood pressure was recorded by means of polygraph. Before administration of the drug, the pressor action due to intravenous administration of A-II (100 ng/kg) as the control was measured. The drugs were orally administered, and then, at each point of the measurement, A-II was administered intravenously, and the pressor action was similarly measured. By comparing the pressor action before and after administration of the drug, the percent inhibition by the drug on A-II-induced pressor action was evaluated.

As to `CCCc1nc2ccc(OC)nc2n1Cc1ccc(-c2ccccc2-c2nnn[nH]2)cc1` [compound 23, 5-Methoxy-2-propyl-3-[[2'-(1H-tetrazol-5-yl)-biphenyl-4-yl]methyl]imidazo[4,5-b]pyridine, 0.3 H2O], on A-II-receptor, the inhibition at 1 µM was found to be 75% and the inhibition at 0.1 µM amounted to 32%.

As for `CCCCc1nc2cc(C)cnc2n1Cc1ccc(-c2ccccc2-c2nnn[nH]2)cc1` [compound 15, 2-Butyl-6-methyl-3-[[2'-(1H-tetrazol-5-yl)-biphenyl-4-yl]methyl]imidazo[5,4-b]pyridine, 0.3 H2O], on A-II-receptor, the inhibition at 1 µM is 75% and the inhibition at 0.1 µM was found to be 32%.

For `CCCCc1nc2ncc(C)cc2n1Cc1ccc(-c2ccccc2-c2nnn[nH]2)cc1` [compound 16, 2-Butyl-6-methyl-1-[[2'-(1H-tetrazol-5-yl)-biphenyl-4-yl]methyl]imidazo[5,4-b]pyridine, 0.4 H2O], on A-II-receptor, the inhibition at 1 µM worked out at 32% and the inhibition at 0.1 µM was found to be 0%.

Consider `CCCCc1nc2cccnc2n1Cc1ccc(-c2ccccc2-c2nnn[nH]2)cc1` [compound 3, 2-Butyl-3-[2'-[(1H-tetrazol-5-yl)biphenyl-4-yl]methyl]imidazo[4,5-b]pyridine], for which the inhibition at 10 mg/kg in the test on Jcl : SD rats (10 mg/kg) lay in the range of 50 to 70%. The compound also registered an inhibition at 30 mg/kg with Jcl : SD rats greater than 70%. Moreover, on A-II-receptor, the inhibition at 1 µM was 92% and the inhibition at 0.1 µM is 63%.

Regarding `CCc1nc2cccnc2n1Cc1ccc(-c2ccccc2-c2nnn[nH]2)cc1` [compound 9, 2-Ethyl-3-[[2'-(1H-tetrazol-5-yl)biphenyl-4-yl]methyl]imidazo[4,5-b]pyridine, 1/2 EtOAc], the inhibition at 30 mg/kg in the test on Jcl : SD rats was greater than 70%. Further, at A-II-receptor, the inhibition at 1 µM was found to be 84% and the inhibition at 0.1 µM is 50%.

As for `CCCCc1nc2cc(Br)c(C)nc2n1Cc1ccc(-c2ccccc2-c2nnn[nH]2)cc1` [compound 24, 6-Bromo-2-butyl-5-methyl-3-[[2'-(1H-tetrazol-5-yl)biphenyl-4-yl]methyl]imidazo[5,4-b]pyridine], on A-II-receptor, the inhibition at 1 µM is 9% and the inhibition at 0.1 µM came out at 0%.

For the compound `CCCCc1nc2ccncc2n1Cc1ccc(-c2ccccc2-c2nnn[nH]2)cc1` [compound 14, 2-Butyl-3-[[2'-(1H-tetrazol-5-yl)biphenyl]-methyl]imidazo[4,5-c]pyridine, 0.2 H2O], at A-II-receptor, the inhibition at 1 µM turned out to be 56% and the inhibition at 0.1 µM amounted to 9%.

With `CCCCc1nc2ncccc2n1Cc1ccc(-c2ccccc2-c2nnn[nH]2)cc1` [compound 4, 0.4 H2O], at A-II-receptor, the inhibition at 1 µM is 48% and the inhibition at 0.1 µM was found to be 5%.

Regarding `CCCCc1nc2nccnc2n1Cc1ccc(-c2ccccc2-c2nnn[nH]2)cc1` [compound 6, 2-Butyl-1-[[2'-(1H-tetrazol-5-yl)biphenyl-4-yl]methyl]imidazo[4,5-b]pyrazine, 0.4 H2O], on A-II-receptor, the inhibition at 1 µM amounted to 81% and the inhibition at 0.1 µM was 43%.

As to `CCCCc1nc2cnccc2n1Cc1ccc(-c2ccccc2-c2nnn[nH]2)cc1` [compound 13, 2-Butyl-1-[[2'-(1H-tetrazol-5-yl)biphenyl]-methyl]imidazo[4,5-c]pyridine, 0.2 H2O], on A-II-receptor, the inhibition at 1 µM stood at 44% and the inhibition at 0.1 µM came out at 1%.
